Data from patent US20210308077A1, “COMBINATIONS INCLUDING BETA-ADRENORECEPTOR AGONISTS FOR TREATMENT OF PARKINSON`S DISEASE AND MOVEMENT DISORDERS” (The Brigham and Women`s Hospital, Inc., priority 2017, published 2021).

Tests used:
[1] = test system: α-synuclein protein and mRNA in substantia nigra; experiment: Snca expression in substantia nigra, dose-finding mouse trial; format: in vivo; settings: 10 mg/kg intraperitoneal, 24 hours, P<0.05
Procedure: The clenbuterol pharmacokinetic (PK) study was done in wild-type C57BL/6J male mice by ChemPartner Co., LTD in Shanghai. The study was done with 4 groups of four mice; one control group and three treatment groups with clenbuterol administered via intraperitoneal injection at dosages of 1, 5 and 10 mg/kg once every 24 hours. Following completion of the administration schedule, blood samples were collected at various time points (e.g. 0.25, 2, 8, and 24 hours), from the four mice per group per time point (final time point of 24 hours post injection). Mice were sacrificed following each blood collection and brains were removed and snap frozen. […] Plasma and brain samples were analyzed by LC-MS/MS for compound concentration at each of three concentrations and at each time point. Standard pharmacokinetic parameters (e.g. AUClast, AUCINF, terminal elimination half-life (t1/2), clearance, volume of distribution, time at maximum observed plasma concentration, etc.) were determined in both plasma and brain tissueby WinNonlin V 6.2 statistics software (Pharsight Corporation, California, USA) using a non-compartmental model. […]
Protein lysis buffer containing 320 mM sucrose, 5 mM NaF, 1 mM Na3VO4, 10 mM Tris (pH 7.4), 1 mM EGTA, and 1 mM EDTA was used for mice brain tissue lysis. […] Total protein concentrations were determined by BCA assay (Thermo Scientific) according to the manufacturer's instructions. […]

SNCA mRNA = experiment: SNCA expression in SNCA-triplication iPSC-derived neurons; format: cell-based, human; settings: SNCA-triplication iPSC-derived neurons cultured for 8 weeks, 20 μM for three days
Procedure: To begin neural differentiation, NPCs were dissociated with accutase and re-plated on matrigel-coated T75 flasks (CytoOne). The next day medium was fully changed to Neural Differentiation (ND) medium, which is NB medium supplemented with recombinant human BDNF and GNDF (both at 10 ng/mL; R&D Systems) and dibutyryl cyclic AMP (500 μM; Sigma), and without FGF-2. Thereafter, media was half-changed every other day. On day 7-9, differentiating neurons were gently dissociated to single cell suspension and then resuspended in pre-chilled Hank's balanced salt solution (HBSS; Gibco/Life Technologies) supplemented with 0.1% bovine serum albumin (Gibco/Life Technologies). After a wash step, cells were plated on 6- or 24-well plates pre-coated with poly-ornithine and laminin (BD Biocoat). […]
Total RNA from flash-frozen mice brain tissue, rodent primary cells, human neuroblastoma cells and iPSC-derived neuronal cells was isolated using TRIzol® (Life Technologies) following the manufacturer's protocol. RNA concentration was measured using NanoDrop spectrophotometer (Thermo Fisher Scientific, Wilmington, De.). […] Quantitative PCR was performed using TaqMan Universal PCR Master Mix (Applied Biosystems) on an ABI 7900HT instrument (Applied Biosystems) as described previously (31). […] Expression values were analyzed using the comparative threshold cycle method (31).

H3K27Ac = experiment: immunoblot with antibody against H3K27Ac in SK-N-MC cells; format: cell-based, human; settings: vs vehicle-treated cells
Procedure: For western blot analysis, protein samples (20 μg) were run on a 4-20% gradient SDS-polyacrylamide gel (Biorad) and transferred onto a polyvinylidene fluoride (PVDF) membrane filter (0.2 μm; Biorad) using an electroblot apparatus (Bio-Rad, Hercules, Calif.) at 100V for 1 h in transfer buffer (25 mM Tris-HCl, 192 mM glycine, 0.1% SDS, 20% (v/v) methanol). The membrane was incubated in blocking solution (50 mM Tris-HCl, 200 mM NaCl, 1 mM MgCl2, pH 7.4) containing 5% non-fat dry milk powder for 1 hour at room temperature. The membrane was processed through sequential incubations with primary antibody overnight at 4° C. followed by incubation with horseradish peroxidase-conjugated species specific secondary antibody at 1:250 dilutions (Thermo Scientific Pierce). Immunoreactive proteins on the membrane were visualized using the SuperSignal™ West Pico Chemiluminescent kit (Thermo Scientific Pierce). Scanned western blots were analyzed using ImageJ software, version 1.47. Pictures were inverted and usually the background signal from an empty lane was subtracted to obtain specific signals for each lane.

SMILES: CC(C)(C)NCC(O)c1cc(Cl)c(N)c(Cl)c1 (stereo not shown) [clenbuterol]
- nigral α-synuclein mRNA levels [1]: significant reduction
- nigral α-synuclein protein levels [1]: significant reduction
- SNCA expression (SNCA mRNA): reduced
- H3K27Ac levels (Western blotting) (H3K27Ac): decreased
